# pKi: −log10 of the molar value.
# Key:
# Mab ATCC 19977 [1] = assay: MIC testing against Mab ATCC 19977, single agent and combinations; format: cell-based, Mycobacterium abscessus
# Protocol: MICs were determined in duplicate following Clinical Laboratory Standards Institute ([52]) guidelines using Middlebrook 7H9 broth supplemented with 10% (vol/vol) oleic acid-albumin-dextrose-catalase (OADC) and 0.05% (vol/vol) Tween 80, with an inoculum of 5 × 10⁵ CFU/mL. MIC testing of two C5α-substituted carbapenems was conducted both individually and in combination with cephalosporins (cefuroxime and ceftaroline), penicillins (amoxicillin), or BLIs (avibactam or durlobactam + sulbactam). Avibactam, durlobactam, cefuroxime, ceftaroline, and amoxicillin were fixed at concentrations of 4, 1, 2, 4, and 4 mg/L, respectively. […] The MIC was defined as the lowest antibiotic concentration that inhibited visible bacterial growth following 48 h of incubation at 30°C.
# [2] = Thermal stability in 7H9 broth at 30°C; conditions: for Degradation percentage: 24 h
# Protocol: The stability of the two compounds in 7H9 broth was assessed at 30°C at drug concentrations of 10, 50, and 100 mg/L, with each condition tested in triplicate. Absorbance at 240 nm was measured every 2 h over a 24 h period using a BioTek Synergy2 multimode reader, with data analyzed via Gen5 software to monitor degradation or changes in stability. To evaluate the impact of thermal instability, MIC tests were performed using Mab ATCC 19977. Compounds were tested at time points of 0 h (no incubation) and 6, 24, and 48 h of incubation at 30°C. Imipenem and meropenem, known to be thermally unstable β-lactams, were included as positive controls. The MIC results were recorded after 48 h of incubation. Detailed MIC testing protocols were identical to those described below.
# Mab ATCC 19977 [3] = assay: MIC testing with drugs pre-incubated in 7H9 broth (effect of drug instability); format: cell-based, Mycobacterium abscessus; conditions: for MIC: Mycobacteroides abscessus, ATCC19977
# Protocol: MICs were determined in duplicate following Clinical Laboratory Standards Institute ([52]) guidelines using Middlebrook 7H9 broth supplemented with 10% (vol/vol) oleic acid-albumin-dextrose-catalase (OADC) and 0.05% (vol/vol) Tween 80, with an inoculum of 5 × 10⁵ CFU/mL. MIC testing of two C5α-substituted carbapenems was conducted both individually and in combination with cephalosporins (cefuroxime and ceftaroline), penicillins (amoxicillin), or BLIs (avibactam or durlobactam + sulbactam). Avibactam, durlobactam, cefuroxime, ceftaroline, and amoxicillin were fixed at concentrations of 4, 1, 2, 4, and 4 mg/L, respectively. Amoxicillin was combined with 4 mg/L avibactam, as it is highly susceptible to hydrolysis by BlaMab ([12], [15], [25]). The MIC was defined as the lowest antibiotic concentration that inhibited visible bacterial growth following 48 h of incubation at 30°C.
# [4] = system: Mab strain ATCC 19977 and three clinical isolates (Mab122, Mab686, and UH01); assay: Static concentration time-kill (SCTK) assay; format: cell-based, Mycobacterium abscessus; conditions: imipenem alone (Fig. S1)
# Protocol: SCTK studies were conducted over 5 days in Middlebrook 7H9 broth supplemented with 10% (vol/vol) OADC, 0.2% (vol/vol) glycerol, and 0.05% (vol/vol) Tween 80 in duplicate. The efficacy of JDB/NA-1-157 and JDB/NA-208 was evaluated using Mab strain ATCC 19977 and three clinical isolates (Mab122, Mab686, and UH01) at an initial inoculum of 10^5.5–10^6.3 CFU/mL. […] Bacterial killing was assessed across a wide range of concentrations for JDB/NA-1-157 and JDB/NA-1-208 individually (0.0625–64.0 mg/L).
# For the combination study, the concentrations of JDB/NA-1-157 and JDB/NA-1-208 were selected based on MIC results and time-killing profiles of the single-drug study, while the concentrations of other β-lactams and BLIs were chosen based on clinically relevant levels, determined from the predicted average unbound steady-state concentrations (fCss,avg) in plasma at clinically relevant doses ([27]). The drug concentrations used were JDB/NA-1-157, 1 mg/L; JDB/NA-1-208, 8 mg/L; imipenem, 12 mg/L; ceftaroline, 8 mg/L; cefuroxime, 8 mg/L; amoxicillin, 2 mg/L; avibactam, 4 mg/L; durlobactam, 12 mg/L; amikacin, 12 mg/L; clarithromycin, 0.3 mg/L; and cefoxitin, 7 mg/L. The SOC regimen was included for comparison of efficacy. On day 3, the broth was replaced with fresh broth containing the corresponding drug concentrations. For viable cell counts, 100 µL of undiluted or appropriately diluted samples was subcultured on Middlebrook 7H10 agar plates supplemented with 1% (vol/vol) OADC, 0.2% glycerol, and 0.05% (vol/vol) Tween 80. All samples were washed twice with sterile 0.9% saline prior to serial dilution or plating.
# PBP B = PBP B (Mycobacteroides abscessus, UniProt B1MP31); assay: Apparent inhibition constant (nitrocefin, Dixon plot); format: biochemical; conditions: read-out: Ki,app (converted)
# Protocol: (§1) Steady-state kinetic studies with JDB/NA-1-157 and JDB/NA-1-208 were performed using purified LDTs and PBPs, including LDT1–5, PBP-B, PBP-lipo, and D,D-carboxypeptidase. The assays were conducted on a BioTek Synergy2 multimode reader equipped with Gen5 software. To determine the Michaelis constant (Km^NCF) for each LDT and PBP, a wide range of NCF concentrations was tested, while the enzyme concentrations were fixed. Absorbance changes at 482 nm were monitored over 10 min. Steady-state kinetic parameters (Vmax and Km) were derived by fitting the experimental data to the Henri–Michaelis–Menten equation using nonlinear least-squares regression in GraphPad Prism version 9. The reaction velocity (v) at a given substrate concentration ([S]) was calculated using equation 2: […]
# (§2) The apparent inhibition constants (Ki,app) for JDB/NA-1-157 and JDB/NA-1-208 were determined under the following conditions: an NCF concentration of 5 × Km, fixed concentrations of LDT or PBP enzymes, and varying concentrations of JDB/NA-1-157 and JDB/NA-1-208. Absorbance changes at 482 nm were monitored over a 30 min period for each inhibitor concentration. The data were linearized using a Dixon plot, which involves plotting the reciprocal of the absorbance change (1/ΔA) against the concentrations of JDB/NA-1-157 or JDB/NA-1-208. Apparent Ki,app values were derived from the intersection points on the Dixon plot and were subsequently corrected for substrate concentration and enzyme affinity using equation 3:
# (§3) (3) Ki,app=observed Ki,app/1+[NCF]/Km NCF.
# PBP-lipo = target: T1, PBP-lipo (Mycobacteroides abscessus, UniProt B1MDC3); assay: as above; format: biochemical; conditions: Ki,app
# T1 construct: made in house; host or cells: Escherichia coli BL21 (DE3)
# Protocol: as §1, §2, §3
# LDT5 = LDT5 (Mycobacteroides abscessus, UniProt B1MHQ4); assay: as above; format: biochemical, Mycobacterium abscessus; conditions: read-out: Ki,app
# Protocol: as §1, §2, §3
# PonA2 = PonA2 (Mycobacteroides abscessus, UniProt B1MFV7); assay: as above; format: biochemical, Mycobacterium abscessus; conditions: Ki,app
# Protocol: as §1, §2, §3
# LDT1 = LDT1 (Mycobacteroides abscessus, UniProt B1MDC1); assay: as above; format: biochemical, Mycobacterium abscessus; conditions: Ki,app
# Protocol: as §1, §2, §3
# LDT2 = LDT2 (Mycobacteroides abscessus, UniProt B1MMQ4); assay: as above; format: biochemical, Mycobacterium abscessus; conditions: Ki,app
# Protocol: as §1, §2, §3
# [5] = system: C[C@@H](O)[C@H]1C(=O)N2C(C(=O)O)=C(S[C@@H]3CN[C@H](C(=O)N(C)C)C3)C[C@]12C; assay: Steady-state kinetics of hydrolysis by BlaMab; format: biochemical, Mycobacterium abscessus; conditions: other: best-fit value (95% confidence interval), MES buffer pH 6.4, room temperature
# [6] = Mycobacteroides abscessus, ATCC19977, 48 h, alone (single agent), read-out: MIC
# [7] = drug incubated 6 h in 7H9 broth at 30°C
# [8] = drug incubated 24 h in 7H9 broth at 30°C
# [9] = drug incubated 48 h in 7H9 broth at 30°C
# PBP B, sequence (B1MP31 entry or part of it): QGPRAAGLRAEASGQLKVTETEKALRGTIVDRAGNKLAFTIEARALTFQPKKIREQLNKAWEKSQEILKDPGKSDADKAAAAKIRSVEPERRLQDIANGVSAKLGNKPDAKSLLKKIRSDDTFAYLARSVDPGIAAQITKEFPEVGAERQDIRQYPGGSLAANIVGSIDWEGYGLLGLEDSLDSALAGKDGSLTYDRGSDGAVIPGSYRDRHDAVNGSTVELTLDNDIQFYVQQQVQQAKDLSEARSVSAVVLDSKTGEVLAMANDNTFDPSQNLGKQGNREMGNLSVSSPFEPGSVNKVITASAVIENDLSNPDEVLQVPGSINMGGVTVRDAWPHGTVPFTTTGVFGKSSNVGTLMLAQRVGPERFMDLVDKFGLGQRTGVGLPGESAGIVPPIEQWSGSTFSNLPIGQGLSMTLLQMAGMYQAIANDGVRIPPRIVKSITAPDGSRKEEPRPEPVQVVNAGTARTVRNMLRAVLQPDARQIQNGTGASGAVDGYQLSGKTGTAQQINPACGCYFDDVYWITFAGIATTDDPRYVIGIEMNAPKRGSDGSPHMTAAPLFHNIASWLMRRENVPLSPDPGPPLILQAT
# PonA2, sequence (B1MFV7 entry or part of it): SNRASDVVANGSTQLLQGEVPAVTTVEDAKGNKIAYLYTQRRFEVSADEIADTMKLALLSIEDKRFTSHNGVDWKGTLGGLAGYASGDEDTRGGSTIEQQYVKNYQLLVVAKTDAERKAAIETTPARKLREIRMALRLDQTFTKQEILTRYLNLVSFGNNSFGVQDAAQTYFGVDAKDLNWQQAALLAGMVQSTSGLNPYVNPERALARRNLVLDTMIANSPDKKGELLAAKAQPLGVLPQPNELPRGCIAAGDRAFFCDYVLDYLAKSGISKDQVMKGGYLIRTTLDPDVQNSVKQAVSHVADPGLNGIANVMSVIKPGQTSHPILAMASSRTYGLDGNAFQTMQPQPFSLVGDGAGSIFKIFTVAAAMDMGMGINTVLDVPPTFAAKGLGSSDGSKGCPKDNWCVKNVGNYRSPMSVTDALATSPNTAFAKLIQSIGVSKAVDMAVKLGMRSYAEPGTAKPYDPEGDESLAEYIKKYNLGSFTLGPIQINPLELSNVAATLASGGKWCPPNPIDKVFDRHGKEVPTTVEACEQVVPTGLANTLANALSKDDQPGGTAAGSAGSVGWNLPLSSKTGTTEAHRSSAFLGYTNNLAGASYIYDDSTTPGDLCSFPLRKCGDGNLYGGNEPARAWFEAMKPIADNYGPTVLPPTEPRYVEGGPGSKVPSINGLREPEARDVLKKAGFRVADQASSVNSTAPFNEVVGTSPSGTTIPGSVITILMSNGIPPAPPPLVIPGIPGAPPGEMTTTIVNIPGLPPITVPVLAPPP
# T1 sequence (B1MDC3 entry or part of it): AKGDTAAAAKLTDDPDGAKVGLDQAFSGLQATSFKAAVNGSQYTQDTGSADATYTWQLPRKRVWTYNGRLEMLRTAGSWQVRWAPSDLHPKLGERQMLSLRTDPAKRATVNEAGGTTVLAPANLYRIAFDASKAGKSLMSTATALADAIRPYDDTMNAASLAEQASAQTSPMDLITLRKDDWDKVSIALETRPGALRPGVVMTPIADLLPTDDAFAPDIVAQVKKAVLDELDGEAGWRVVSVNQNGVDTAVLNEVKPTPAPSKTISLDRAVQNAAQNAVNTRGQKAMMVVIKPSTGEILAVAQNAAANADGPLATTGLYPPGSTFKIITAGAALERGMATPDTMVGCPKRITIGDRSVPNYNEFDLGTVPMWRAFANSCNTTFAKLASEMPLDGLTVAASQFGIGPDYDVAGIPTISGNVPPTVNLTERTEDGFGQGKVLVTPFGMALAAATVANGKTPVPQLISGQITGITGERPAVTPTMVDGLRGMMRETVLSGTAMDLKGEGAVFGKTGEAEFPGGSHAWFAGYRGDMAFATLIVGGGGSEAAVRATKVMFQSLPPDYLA
# LDT1, sequence (B1MDC1 entry or part of it): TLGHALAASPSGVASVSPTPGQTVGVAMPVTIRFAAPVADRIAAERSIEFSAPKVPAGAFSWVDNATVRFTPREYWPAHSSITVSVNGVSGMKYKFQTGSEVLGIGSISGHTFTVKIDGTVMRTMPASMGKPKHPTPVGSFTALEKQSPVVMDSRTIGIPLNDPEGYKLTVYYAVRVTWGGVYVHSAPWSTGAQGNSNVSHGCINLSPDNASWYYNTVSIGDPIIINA
# LDT5, sequence (B1MHQ4 entry or part of it): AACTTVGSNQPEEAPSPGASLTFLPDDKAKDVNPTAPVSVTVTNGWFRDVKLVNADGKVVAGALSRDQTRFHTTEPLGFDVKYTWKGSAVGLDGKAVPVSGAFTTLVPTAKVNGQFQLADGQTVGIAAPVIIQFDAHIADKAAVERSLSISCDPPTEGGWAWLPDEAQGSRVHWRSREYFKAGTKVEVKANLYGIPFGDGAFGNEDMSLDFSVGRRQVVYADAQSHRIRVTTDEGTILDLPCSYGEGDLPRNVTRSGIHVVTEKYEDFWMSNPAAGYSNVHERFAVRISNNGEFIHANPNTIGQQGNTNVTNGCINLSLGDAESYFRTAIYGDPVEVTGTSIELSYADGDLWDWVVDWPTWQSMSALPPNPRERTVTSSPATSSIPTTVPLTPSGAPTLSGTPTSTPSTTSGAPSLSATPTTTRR
# LDT2, sequence (B1MMQ4 entry or part of it): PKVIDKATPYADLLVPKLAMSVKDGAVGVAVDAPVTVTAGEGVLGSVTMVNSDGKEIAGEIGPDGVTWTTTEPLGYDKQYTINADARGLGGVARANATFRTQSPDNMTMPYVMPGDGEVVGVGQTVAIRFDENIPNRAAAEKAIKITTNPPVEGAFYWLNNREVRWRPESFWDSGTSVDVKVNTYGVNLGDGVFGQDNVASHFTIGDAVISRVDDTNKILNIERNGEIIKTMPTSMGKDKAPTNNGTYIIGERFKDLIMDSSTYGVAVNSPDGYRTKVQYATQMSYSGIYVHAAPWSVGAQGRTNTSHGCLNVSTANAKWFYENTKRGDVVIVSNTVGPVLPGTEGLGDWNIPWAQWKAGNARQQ
molecule,measurement,setting,value
"CC1(C)S[C@@H]2[C@H](NC(=O)[C@H](N)c3ccc(O)cc3)C(=O)N2[C@H]1C(=O)O [AMX, amoxicillin, reference compound]",MIC,Mab ATCC 19977 [1]; [6],128 µg/mL
same,MIC,"Mab ATCC 19977 [1]; no carbapenem, with AVI",32 µg/mL
"NC(=O)[C@@H]1CC[C@@H]2CN1C(=O)N2OS(=O)(=O)O [AVI, avibactam, reference compound]",MIC,Mab ATCC 19977 [1]; [6],> 128 µg/mL
"CCO/N=C(\C(=O)N[C@@H]1C(=O)N2C(C(=O)[O-])=C(Sc3nc(-c4cc[n+](C)cc4)cs3)CS[C@H]12)c1nsc(N)n1 [CFT, ceftaroline, reference compound]",MIC,Mab ATCC 19977 [1]; [6],16 µg/mL
"CO/N=C(\C(=O)N[C@@H]1C(=O)N2C(C(=O)O)=C(COC(N)=O)CS[C@H]12)c1ccco1 [CXM, cefuroxime, reference compound]",MIC,Mab ATCC 19977 [1]; [6],4 µg/mL
"CC1=C[C@@H]2CN(C(=O)N2OS(=O)(=O)O)[C@@H]1C(N)=O [DUR, durlobactam, reference compound]",MIC,Mab ATCC 19977 [1]; [6],8 µg/mL
"C[C@@H](O)[C@H]1C(=O)N2C(C(=O)O)=C(SCCN=CN)C[C@H]12 [IPM, imipenem]",additional degradation by 24 h,[2],approximately 25%
same,degradation within the first 6 h,[2],approximately 25%
same,half-life,[2]; 7H9 broth,10 h
same,Degradation percentage,[2]; 10 mg/L,67.8%
same,Degradation percentage,[2]; 50 mg/L,51.4%
same,Degradation percentage,[2]; 100 mg/L,49.3%
same,MIC,Mab ATCC 19977 [3]; [7],1 µg/mL
same,MIC,Mab ATCC 19977 [3]; [8],32 µg/mL
same,MIC,Mab ATCC 19977 [3]; [9],> 64 µg/mL
same,MIC,Mab ATCC 19977 [3]; no incubation of drug,1 µg/mL
same,MIC fold increase after 24 h incubation,Mab ATCC 19977 [3]; drug incubated 24 h,32 fold
same,MIC fold increase after 48 h incubation,Mab ATCC 19977 [3]; drug incubated 48 h,> 64 fold
same,log10 reduction in bacterial load,[4],~1.5 log10
same,Ki,PBP B,1470 nM
same,pKi,PBP-lipo,5.74
same,pKi,LDT5,4.00
same,pKi,PonA2,5.50
"C[C@@H](O)[C@H]1C(=O)N2C(C(=O)O)=C(S[C@@H]3CN[C@H](C(=O)N(C)C)C3)[C@H](C)[C@H]12 [MEM, meropenem]",Degradation percentage,[2]; 10 mg/L,11.7%
same,Degradation percentage,[2]; 50 mg/L,15.8%
same,Degradation percentage,[2]; 100 mg/L,16.1%
same,MIC,Mab ATCC 19977 [3]; [7],4 µg/mL
same,MIC,Mab ATCC 19977 [3]; [8],16 µg/mL
same,MIC,Mab ATCC 19977 [3]; [9],16 µg/mL
same,MIC,Mab ATCC 19977 [3]; no incubation of drug,4 µg/mL
same,MIC rise after 24 and 48 h incubation vs nonincubated,Mab ATCC 19977 [3]; drug incubated 24 and 48 h,fourfold
same,Ki,PBP B,965 nM
same,pKi,LDT1,6.69
same,pKi,LDT2,7.50
same,pKi,PonA2,6.84
BlaMab (Mycobacteroides abscessus ATCC 19977),Km,[5],9.054 (3.677–17.50) µM
same,kcat,[5],0.03 s⁻¹
same,kcat/Km,[5],3000 M⁻¹ s⁻¹
